Results from patent publication US20240060999A1, “BLOOD COAGULATION INSPECTION METHOD” (FUJIMORI KOGYO CO., LTD, priority 2020, published 2024).

Tested on: whole blood
Test: ROTEM whole blood coagulation with rabbit brain-derived tissue thromboplastin (TP) + Ca 12 mM (CTI 20 μg/mL, PKSI-527 40 μM where stated)
Format: cell-based
Conditions: for prolongation of blood clotting time with rTM by addition of heparan sulfate: reagents (1)-(4), all conditions, heparan sulfate 1 μg/mL
[1] = Ex15, TP 0.033 μg/mL+Ca+CTI+PKSI-527, heparan sulfate 0.3 μg/mL, no rTM
[2] = Ex15, TP 0.033 μg/mL+Ca+CTI+PKSI-527, heparan sulfate 0.3 μg/mL, rTM 5 nM
[3] = Ex15, TP 0.033 μg/mL+Ca+CTI+PKSI-527, heparan sulfate 0.4 μg/mL, no rTM
[4] = Ex15, TP 0.033 μg/mL+Ca+CTI+PKSI-527, heparan sulfate 0.4 μg/mL, rTM 5 nM
[5] = Ex15, TP 0.033 μg/mL+Ca+CTI+PKSI-527, heparan sulfate 0.5 μg/mL, no rTM
[6] = Ex15, TP 0.033 μg/mL+Ca+CTI+PKSI-527, heparan sulfate 0.5 μg/mL, rTM 5 nM
[7] = Ex17, TP 0.011 μg/mL+Ca+CTI+PKSI-527, heparan sulfate 0.2 μg/mL, no rTM
[8] = Ex17, TP 0.011 μg/mL+Ca+CTI+PKSI-527, heparan sulfate 0.2 μg/mL, rTM 10 nM
[9] = Ex17, TP 0.011 μg/mL+Ca+CTI+PKSI-527, heparan sulfate 0.3 μg/mL, no rTM
[10] = Ex17, TP 0.011 μg/mL+Ca+CTI+PKSI-527, heparan sulfate 0.3 μg/mL, rTM 10 nM
[11] = Ex17, TP 0.011 μg/mL+Ca+CTI+PKSI-527, heparan sulfate 0.5 μg/mL, no rTM
[12] = Ex17, TP 0.011 μg/mL+Ca+CTI+PKSI-527, heparan sulfate 0.5 μg/mL, rTM 10 nM
[13] = Ex18, TP 0.0166 μg/mL+Ca+CTI+PKSI-527, heparan sulfate 0.3 μg/mL, no rTM
[14] = Ex18, TP 0.0166 μg/mL+Ca+CTI+PKSI-527, heparan sulfate 0.3 μg/mL, rTM 10 nM
[15] = Ex18, TP 0.0166 μg/mL+Ca+CTI+PKSI-527, heparan sulfate 0.5 μg/mL, no rTM
[16] = Ex18, TP 0.0166 μg/mL+Ca+CTI+PKSI-527, heparan sulfate 0.5 μg/mL, rTM 10 nM
[17] = Ex18, TP 0.0166 μg/mL+Ca+CTI+PKSI-527, heparan sulfate 1.0 μg/mL, no rTM
[18] = Ex18, TP 0.0166 μg/mL+Ca+CTI+PKSI-527, heparan sulfate 1.0 μg/mL, rTM 10 nM

In the case of Heparan sulfate, the “CT (clotting time)” value (Ex15, TP 0.033 μg/mL+Ca+CTI+PKSI-527, heparan sulfate 0.2 μg/mL, rTM 5 nM) is reported as 749 s, the “CFT (clot formation time)” value [1] is reported as 171 s and the “CT (clotting time)” value [1] is reported as 688 s. For the same substance, the “CFT (clot formation time)” value [2] was 251 s, the “CT (clotting time)” value [2] was 825 s and the “CFT (clot formation time)” value [3] was 206 s. The “CT (clotting time)” value [3] was 762 s, the “CFT (clot formation time)” value [4] was 334 s and the “CT (clotting time)” value [4] was 955 s. The “CFT (clot formation time)” value [5] was 248 s, the “CT (clotting time)” value [5] was 837 s and the “CFT (clot formation time)” value [6] was 407 s. The “CT (clotting time)” value [6] was 995 s, the blood clotting time (Ex17, TP 0.011 μg/mL+Ca+CTI+PKSI-527, heparan sulfate 0.2 μg/mL or more, rTM 10 nM) was at least 1 h and the “CFT (clot formation time)” value [7] was 578 s. For the same substance, the “CT (clotting time)” value [7] was 1408 s, the “CFT (clot formation time)” value [8] was “No CFT” and the “CT (clotting time)” value [8] was “No CT”. The “CFT (clot formation time)” value [9] was 430 s, the “CT (clotting time)” value [9] was 1630 s and the “CFT (clot formation time)” value [10] was “No CFT”. For the same substance, the “CT (clotting time)” value [10] was “No CT”, the “CFT (clot formation time)” value [11] was 386 s and the “CT (clotting time)” value [11] was 1178 s. For the same substance, the “CFT (clot formation time)” value [12] was “No CFT”, the “CT (clotting time)” value [12] was “No CT” and the “CFT (clot formation time)” value [13] was 256 s. The “CT (clotting time)” value [13] was 1035 s, the “CFT (clot formation time)” value [14] was 292.0 s and the “CT (clotting time)” value [14] was 904 s. For the same substance, the “CFT (clot formation time)” value [15] was 407 s, the “CT (clotting time)” value [15] was 1162 s and the “CFT (clot formation time)” value [16] was 742.0 s. For the same substance, the “CT (clotting time)” value [16] was 1064 s, the “CFT (clot formation time)” value [17] was “No CT” and the “CT (clotting time)” value [17] was 1999 s. The “CFT (clot formation time)” value [18] was “No CFT”, the “CT (clotting time)” value [18] was “No CT” and the blood clotting time [18] was at least 1 h. The “CT (clotting time)” value (Ex30, reagent (1): TP 0.664 μg/mL+heparan sulfate 1 μg/mL+Ca, no rTM) was 220 s, the “CT (clotting time)” value (Ex30, reagent (1): TP 0.664 μg/mL+heparan sulfate 1 μg/mL+Ca, rTM 25 nM) was 533 s and the “CT (clotting time)” value (Ex30, reagent (1): TP 0.664 μg/mL+heparan sulfate 1 μg/mL+Ca, rTM 25 nM+APC inhibitory aptamer 1 μM) was 260 s. The “CT (clotting time)” value (Ex30, reagent (2): TP 0.664 μg/mL+heparan sulfate 1 μg/mL+Ca+CTI, no rTM) was 214 s, the “CT (clotting time)” value (Ex30, reagent (2): TP 0.664 μg/mL+heparan sulfate 1 μg/mL+Ca+CTI, rTM 25 nM) was 448 s and the “CT (clotting time)” value (Ex30, reagent (2): TP 0.664 μg/mL+heparan sulfate 1 μg/mL+Ca+CTI, rTM 25 nM+APC inhibitory aptamer 1 μM) was 287 s. For the same substance, the “CT (clotting time)” value (Ex30, reagent (3): TP 0.664 μg/mL+heparan sulfate 1 μg/mL+Ca+PKSI-527, no rTM) was 220 s, the “CT (clotting time)” value (Ex30, reagent (3): TP 0.664 μg/mL+heparan sulfate 1 μg/mL+Ca+PKSI-527, rTM 25 nM) was 444 s and the “CT (clotting time)” value (Ex30, reagent (3): TP 0.664 μg/mL+heparan sulfate 1 μg/mL+Ca+PKSI-527, rTM 25 nM+APC inhibitory aptamer 1 μM) was 291 s. For the same substance, the “CT (clotting time)” value (Ex30, reagent (4): TP 0.664 μg/mL+heparan sulfate 1 μg/mL+Ca+CTI+PKSI-527, no rTM) was 226 s, the “CT (clotting time)” value (Ex30, reagent (4): TP 0.664 μg/mL+heparan sulfate 1 μg/mL+Ca+CTI+PKSI-527, rTM 25 nM) was 440 s and the “CT (clotting time)” value (Ex30, reagent (4): TP 0.664 μg/mL+heparan sulfate 1 μg/mL+Ca+CTI+PKSI-527, rTM 25 nM+APC inhibitory aptamer 1 μM) was 319 s. The “prolongation of blood clotting time with rTM by addition of heparan sulfate” value (Ex30, rTM 25 nM) was “markedly prolonged”, the “CT (clotting time)” value (Ex31, reagent (1): TP 0.664 μg/mL+heparan sulfate 1 μg/mL+Ca, no rTM) was 220 s and the “CT (clotting time)” value (Ex31, reagent (1): TP 0.664 μg/mL+heparan sulfate 1 μg/mL+Ca, rTM 30 nM) was 766 s. For the same substance, the “CT (clotting time)” value (Ex31, reagent (1): TP 0.664 μg/mL+heparan sulfate 1 μg/mL+Ca, rTM 30 nM+APC inhibitory aptamer 1 μM) was 301 s, the “CT (clotting time)” value (Ex31, reagent (2): TP 0.664 μg/mL+heparan sulfate 1 μg/mL+Ca+CTI, no rTM) was 214 s and the “CT (clotting time)” value (Ex31, reagent (2): TP 0.664 μg/mL+heparan sulfate 1 μg/mL+Ca+CTI, rTM 30 nM) was 613 s. For the same substance, the “CT (clotting time)” value (Ex31, reagent (2): TP 0.664 μg/mL+heparan sulfate 1 μg/mL+Ca+CTI, rTM 30 nM+APC inhibitory aptamer 1 μM) was 286 s, the “CT (clotting time)” value (Ex31, reagent (3): TP 0.664 μg/mL+heparan sulfate 1 μg/mL+Ca+PKSI-527, no rTM) was 220 s and the “CT (clotting time)” value (Ex31, reagent (3): TP 0.664 μg/mL+heparan sulfate 1 μg/mL+Ca+PKSI-527, rTM 30 nM) was 517 s. The “CT (clotting time)” value (Ex31, reagent (3): TP 0.664 μg/mL+heparan sulfate 1 μg/mL+Ca+PKSI-527, rTM 30 nM+APC inhibitory aptamer 1 μM) was 297 s, the “CT (clotting time)” value (Ex31, reagent (4): TP 0.664 μg/mL+heparan sulfate 1 μg/mL+Ca+CTI+PKSI-527, no rTM) was 226 s and the “CT (clotting time)” value (Ex31, reagent (4): TP 0.664 μg/mL+heparan sulfate 1 μg/mL+Ca+CTI+PKSI-527, rTM 30 nM) was 557 s. For the same substance, the “CT (clotting time)” value (Ex31, reagent (4): TP 0.664 μg/mL+heparan sulfate 1 μg/mL+Ca+CTI+PKSI-527, rTM 30 nM+APC inhibitory aptamer 1 μM) was 307 s and the “prolongation of blood clotting time with rTM by addition of heparan sulfate” value (Ex31, rTM 30 nM) was “markedly prolonged”.
